From patent US5159102A, “7-thiaprostaglandins E, and process for producing same” (Teijin Limited, priority 1990, dated 1992) come the findings set out here.

As a reminder, the ED50 is the dose that gives a 50% effect, or the effect in half of the subjects. Read a high ED50 as a need for a large dose. A word on the IC50: it is the concentration that inhibits the measured activity by half.

In brackets after ≈: the same amount, converted by molar mass. Bounds are passed on as bounds.

The subject of test [1] is ulcer formation induced by indomethacin (stomach). Briefly: Inhibiting effect on ulcer formation induced by indomethacin (antiulcerative effect). The format is in vivo. To be noted: Rattus norvegicus, po; P.O., Wister male rats; 30 min before indomethacin 20 mg/kg p.o.; ulcer length 5 h after. As to the method: The inhibiting effect on ulcer formation induced by indomethacin was examined by using rats. Wister male rats (7 weeks old and body weight of 220 g) were abstained from food for 24 hours except giving water and then subjected to experiments.
The sample compounds to be tested were dissolved in a phosphoric acid buffer (pH 7.4) containing 0.9% NaCl and the solution was orally administered to the rats. 30 minutes after the administration, indomethacin was orally administered to the rats at a dose of 20 mg/kg. 5 hours after the administration of the indomethacin, the rats were killed and the ulcer formation in the stomach was examined by determining the length of the ulcer formation portion under a stereomicroscope. From this measurement, the inhibition of ulcer formation by the sample compounds were calculated to determine the ED values.

Test [2] has as its system blood platelet aggregation (ADP, PRP). Put plainly: In vitro blood platelet aggregation inhibition effect. The format is cell-based, native Japanese white male domestic rabbits. To be noted: Oryctolagus cuniculus, rabbit PRP, 10 μM ADP, 37° C., read-out: Anti-platelet aggregation effect IC50. As to the method:
The in vitro blood platelet aggregation inhibition effect of the sample compounds to be tested was examined by using rabbits. That is, blood was collected from the ear vein of native Japanese white male domestic rabbits weighing 2.5 to 3.5 kg. The collected blood was 9 parts by volume per 1 part by volume of a 3.8% sodium citrate solution. The blood was centrifuged at 1000 r.p.m. for 10 minutes. The upper layer portion was separated as PRP (rich in platelet blood plasma). The lower layer portion was further centrifuged at 2800 r.p.m. for 10 minutes to divide it into two layers. The upper layer portion was separated as PPP (poor in platelet blood plasma). The number of the platelet was diluted with PPP to […]. After the adjustment, 25 μl of the sample compound was added to 250 μl of PRP, which was preincubated at a temperature of 37° C. for 2 minutes. Thereafter, 10 μM of ADP (final) was added to the preincubated PRP to record the variation of the transmittance by means of aggregometer. […]
When the activity of the sample compounds was determined, the ethanol solution was diluted with a phosphoric acid buffer (PH 7.4). The ethanol solution diluted with the buffer was left to stand at a temperature of 0° C. for 4 hours, after which the activity of the sample compounds was determined in the same manner.
The platelet aggregation inhibition was calculated by the following formula: […]

As to `CCCCC(O)C/C=C/[C@H]1[C@H](O)CC(=O)[C@@H]1SCCCCCC(=O)OC` (stereo partly shown), it took a dose of 0.01 mg/kg to reach the 50% effect level in test [1] (ED50). For the same compound, the IC50 in test [2] worked out at 17 µg/mL (≈ 44 µM).
Compound `CCCCCC(O)/C=C/C1CCC(=O)C1SCCCCCC(=O)OC` (stereo not shown) had an ED50 in test [1] of 0.3 mg/kg. For the same compound, the IC50 in test [2] is over 100 µg/mL.
